{
  "source": "patent USRE50049E1",
  "about": "“Compositions and methods for treating psoriasis” (SYMBIONYX PHARMACEUTICALS INC, priority 2015, dated 2024)",
  "key": {"[1]": {"details": "cited from earlier work"}, "[2]": {"system": "TNF α-treated human dermal fibroblasts (HDF)", "test": "PCR gene expression in TNF α-treated human dermal fibroblasts", "assay_type": "cell-based", "details": "24 hours, TNF-alpha 10 ng/ml"}, "[3]": {"system": "psoriasiform keratinocytes (epidermal keratinocyte progenitors incubated with IL-17A/IL-22/TNFα)", "test": "DNA microarray gene expression in psoriasiform keratinocyte cultures", "assay_type": "cell-based, human", "details": "IDMF added after 24 h cytokine treatment, further 24 h", "method": "Psoriasiform keratinocyte cultures were established by incubating epidermal keratinocyte progenitors from stratum basae (Zen-Bio, RTP, NC) with IL-17A/IL-22/TNFα ([…]) for 24 h. These cytokines have been reported to be key triggers in psoriasis (Y Tokura, T Mori, R Hino, Psoriasis and other Th17-mediated skin diseases. J UOEH, 32(4):317-328, 2010; A B Van Belle, M de Heusch, M M Lemaire, E Hendrickx, G Wamier, K Dunussi-Joannopoulos, L A Fouser, J C Renauld, L Dumoutier, IL-22 is required for imiquimod-induced psoriasiform skin inflammation in mice, J Immunol, 188(1):462-469, 2012; A Hänsel, C Günther, J Ingwersen, J Starke, M Schmitz, M Bachmann, M Meurer, E P Rieber, K Schäkel, Human slan (6-sulfo LacNAc) dendritic cells are inflammatory dermal dendritic cells in psoriasis and drive strong TH17/TH1 T-cell responses, J Allergy Clin Immunol, 127(3):787-794, 2011; Kim J, Krueger J G. The Immunopathogenesis of Psoriasis, Dermatol Clin, 33:13-23, 2015). […]\nAfter 24 h of cytokine treatment, the IDMF test materials were added to cells and further incubation with IL-17A/IL-22/TNFα was pursued for another 24 h. At the end of the experiment total RNA was extracted from keratinocytes and quantified using DNA microarrays. […]"}, "S. typhimurium TA1537": {"system": "S. typhimurium TA1537", "details": "% of mutant colonies spontaneously occurring in water control"}, "[4]": {"system": "S. typhimurium (TA1535, TA1537)", "test": "AMES genotoxicity testing, overall conclusion (TA1535, TA1537)", "details": "including at the highest concentration required for testing (5 mg/ml)"}, "3T3": {"system": "3T3", "test": "3T3 Neutral Red Uptake Phototoxicity Assay", "assay_type": "cell-based", "details": "even at the maximum concentration required for testing (100 μg/ml)", "text": "The 3T3 Neutral Red Uptake Phototoxicity Assay was based on the OECD Guideline for Testing of Chemicals: […], with chlorpromazine and tazarotene as positive controls."}, "S. typhimurium TA1535": {"system": "S. typhimurium TA1535", "details": "% of mutant colonies spontaneously occurring in water control"}, "[5]": {"system": "stratum granulosum (StGrm) coverage of mouse tail epidermis", "test": "Murine tail model of psoriasis", "assay_type": "in vivo", "details": "2 weeks of application", "text": "The mouse tail test is a well-established animal model used for the development of FDA-approved anti-psoriasis drugs. Table 6 summarize the findings following 2 weeks of test material application on the tails, with the readout of improvement in stratum granulosum (StGrm) coverage +/− side effects.\nThe arrow in each photomicrograph points to the StGrm (stratum granulosum), which, as noted, is minimal in the control."}, "[6]": {"system": "skin of healthy adult volunteers", "test": "Human repeat insult patch test (HRIPT)", "details": "IDMF 2% and 5% in butylene glycol/glycerin base"}, "[7]": {"details": "Lammintausta et al., Contact Dermatitis 2010; cited from earlier work"}, "[8]": {"details": "primary metabolite after oral administration of dimethyl fumarate; cited from earlier work"}, "[9]": {"details": "mouse tail, IDMF 2%, Tazorac 0.1% tazarotene"}},
  "note": "“Also recorded” adds a separate entry of the source. Counter-ions that a name gives are not always drawn. Like-named read-outs stand apart in the source and are kept apart here.",
  "data": [
    {"compound": "COC(=O)/C=C/C(=O)OC", "note": "[DMF, Dimethyl fumarate, reference compound]", "values": [
      {"measurement": "protein binding", "setting": "[1]", "result": "does not display protein binding"},
      {"measurement": "NFKB expression", "setting": "[2]; DMF 5 μg/ml", "result": "decreased"}
    ]},
    {"compound": "COC(=O)/C=C/C(=O)OC1COC2C(OC(=O)/C=C/C(=O)OC)COC12", "note": "(centres unmarked) [IDMF, isosorbide di-(methylfumarate)]", "values": [
      {"measurement": "TNFα/IFNγ/IL-17 responses (DNA microarray)", "setting": "[3]", "result": "significant inhibition"},
      {"measurement": "antioxidant pathways, especially those related to glutathione (DNA microarray)", "setting": "[3]", "result": "upregulated"},
      {"measurement": "% CTR (TA1537)", "setting": "S. typhimurium TA1537; 8 μg/ml", "result": 83, "unit": "% CTR"},
      {"measurement": "% CTR (TA1537)", "setting": "S. typhimurium TA1537; 40 μg/ml", "result": 117, "unit": "% CTR"},
      {"measurement": "% CTR (TA1537)", "setting": "S. typhimurium TA1537; 200 μg/ml", "result": 91, "unit": "% CTR"},
      {"measurement": "% CTR (TA1537)", "setting": "S. typhimurium TA1537; 1 mg/ml", "result": 30, "unit": "% CTR"},
      {"measurement": "% CTR (TA1537)", "setting": "S. typhimurium TA1537; 5 mg/ml", "result": 13, "unit": "% CTR"},
      {"measurement": "genotoxicity (AMES)", "setting": "[4]", "result": "not genotoxic"},
      {"measurement": "phototoxicity", "setting": "3T3", "result": "not phototoxic"},
      {"measurement": "% CTR (TA1535)", "setting": "S. typhimurium TA1535; 8 μg/ml", "result": 96, "unit": "% CTR"},
      {"measurement": "% CTR (TA1535)", "setting": "S. typhimurium TA1535; 40 μg/ml", "result": 89, "unit": "% CTR"},
      {"measurement": "% CTR (TA1535)", "setting": "S. typhimurium TA1535; 200 μg/ml", "result": 68, "unit": "% CTR"},
      {"measurement": "% CTR (TA1535)", "setting": "S. typhimurium TA1535; 1 mg/ml", "result": 64, "unit": "% CTR"},
      {"measurement": "% CTR (TA1535)", "setting": "S. typhimurium TA1535; 5 mg/ml", "result": 18, "unit": "% CTR"},
      {"measurement": "Tail observations: epidermal thickness", "setting": "[5]; mouse tail, IDMF 2% in butylene glycol/glycerin, Tazorac 0.1% tazarotene, control 3-4 layers", "result": "thickness (4-5 layers),"},
      {"measurement": "Tail observations: granular layer (StGrm)", "setting": "[5]; [9]", "result": "significant extension of StGrm coverage; also recorded: extended granular layer"},
      {"measurement": "Tail observations: inflammatory (leukocyte) infiltrate", "setting": "[5]; [9]", "result": "no inflammation; also recorded: no inflammatory infiltrate,"},
      {"measurement": "Tail observations: stratum corneum (StCr)", "setting": "[5]; [9]", "result": "normal basketwave StCr,"},
      {"measurement": "StGrm expansion", "setting": "[5]; mouse tail, control (no treatment) = 100, IDMF 2% in butylene glycol/glycerin, Tazorac 0.1% tazarotene, p < 0.0001", "result": "134 (p < 0.0001)"},
      {"measurement": "COX-2 expression", "setting": "[2]; IDMF 1 μg/ml", "result": "−2.4", "unit": "fold"},
      {"measurement": "IL8 expression", "setting": "[2]; IDMF 1 μg/ml", "result": "did not increase"},
      {"measurement": "NFKB expression", "setting": "[2]; IDMF 1 μg/ml", "result": "decreased"},
      {"measurement": "conclusion of the HRIPT study", "setting": "[6]", "result": "non-sensitizing and non-irritating"},
      {"measurement": "participants with score zero", "setting": "[6]; 100 healthy adult volunteers", "result": 100, "unit": "%"},
      {"measurement": "skin sensitization/irritation score (scale 0-5)", "setting": "[6]; 100 healthy adult volunteers", "result": 0},
      {"measurement": "flushing", "setting": "[6]; topical patch", "result": "no flushing was observed"}
    ]},
    {"compound": "COC(=O)/C=C/C(=O)O", "note": "[MMF, monomethyl fumarate]", "values": [
      {"measurement": "skin sensitization", "setting": "[7]", "result": "known skin sensitizers"},
      {"measurement": "protein binding (bound)", "setting": "[1]", "result": "approximately 50%"},
      {"measurement": "half-life", "setting": "[8]", "result": 36, "unit": "h"}
    ]},
    {"compound": "CCOC(=O)c1ccc(C#Cc2ccc3c(c2)C(C)(C)CCS3)nc1", "note": "[tazarotene, reference compound]", "values": [
      {"measurement": "adverse effects in mouse tail test", "setting": "[5]; positive control", "result": "substantial hyperkeratosis, spongiosis and wide-spread inflammation"}
    ]}
  ]
}
